Laboratory results: article PMC11457037 (Journal of medicinal chemistry, 2023)

These molecules were tested against T1, EV-D68 2A^pro (Enterovirus D68, UniProt A0A097BW19) (assay: Enzyme kinetic studies). Conditions: from fitting of kinetic curves.
Format: biochemical
CC(C)(C)[C@H](NC(=O)CC12CC3CC(CC(C3)C1)C2)C(=O)N1C[C@@H]2CCC[C@@H]2[C@H]1C(=O)N[C@H](C=O)Cc1ccc(F)cc1 [Jun11707, (1S,3aR,6aS)-2-((S)-2-(2-((3S,5S,7S)-adamantan-1-yl)acetamido)-3,3-dimethylbutanoyl)-N-((S)-1-(4-fluorophenyl)-3-oxopropan-2-yl)octahydrocyclopenta[c]pyrrole-1-carboxamide] was tested, and the “Mode of inhibition of EV-D68 2A^pro” value was “reversible binding”. For CC(C)(C)[C@H](NC(=O)CC12CC3CC(CC(C3)C1)C2)C(=O)N1C[C@@H]2CCC[C@@H]2[C@H]1C(=O)N[C@H](C(=O)C(=O)NC1CC1)C1CCCC1 [Jun11808, (1S,3aR,6aS)-2-((S)-2-(2-((3S,5S,7S)-adamantan-1-yl)acetamido)-3,3-dimethylbutanoyl)-N-((S)-1-cyclopentyl-3-(cyclopropylamino)-2,3-dioxopropyl)octahydrocyclopenta[c]pyrrole-1-carboxamide], the “Mode of inhibition of EV-D68 2A^pro” value was “reversible binding”.

What follows are molecules tested against T1, EV-D68 2A^pro (assay: FRET-based enzymatic assay). Conditions: not given.
Format: biochemical
In the case of CCC[C@H](NC(=O)[C@@H]1[C@H]2CCC[C@H]2CN1C(=O)[C@@H](NC(=O)NC12CC3CC(CC(C3)C1)C2)C(C)(C)C)C(=O)C(=O)NC1CC1 [Jun1023, (1S)-2-((S)-2-(3-((3R,5R,7R)-adamantan-1-yl)ureido)-3,3-dimethylbutanoyl)-N-((S)-1-(cyclopropylamino)-1,2-dioxohexan-3-yl)octahydrocyclopenta[c]pyrrole-1-carboxamide], the “enzymatic inhibition, comparison in words” value (“enzymatic inhibition” for short) is reported as “reduced enzymatic inhibition”. With CC(C)[C@H](NC(=O)[C@@H]1[C@H]2CCC[C@H]2CN1C(=O)[C@@H](NC(=O)CC12CC3CC(CC(C3)C1)C2)C(C)(C)C)C(=O)C(=O)NC1CC1 [Jun11718, (1S,3aR,6aS)-2-((S)-2-(2-((3S,5S,7S)-adamantan-1-yl)acetamido)-3,3-dimethylbutanoyl)-N-((S)-1-(cyclopropylamino)-4-methyl-1,2-dioxopentan-3-yl)octahydrocyclopenta[c]pyrrole-1-carboxamide] the “enzymatic inhibition” value was “comparable enzymatic inhibition and antiviral activity as Jun8861”. CC(C)(C)[C@H](NC(=O)CC12CC3CC(CC(C3)C1)C2)C(=O)N1C[C@@H]2CCC[C@@H]2[C@H]1C(=O)N[C@H](C(=O)C(=O)NC1CC1)c1ccc(F)cc1 [Jun11861, (1S,3aR,6aS)-2-((S)-2-(2-((3S,5S,7S)-adamantan-1-yl)acetamido)-3,3-dimethylbutanoyl)-N-((S)-3-(cyclopropylamino)-1-(4-fluorophenyl)-2,3-dioxopropyl)octahydrocyclopenta[c]pyrrole-1-carboxamide] was tested, and the “enzymatic inhibition” value was “less active”. For CCC[C@H](NC(=O)[C@@H]1[C@H]2CCC[C@H]2CN1C(=O)[C@@H](NC(=O)Cc1ccccc1)C(C)(C)C)C(=O)C(=O)NC1CC1 [Jun8681, (1S,3aR,6aS)-N-((S)-1-(cyclopropylamino)-1,2-dioxohexan-3-yl)-2-((S)-3,3-dimethyl-2-(2-phenylacetamido)butanoyl)octahydrocyclopenta[c]pyrrole-1-carboxamide], the “enzymatic inhibition” value was “reduced enzymatic inhibition and antiviral activity compared to telaprevir”. CCC[C@H](NC(=O)[C@@H]1[C@H]2CCC[C@H]2CN1C(=O)[C@@H](NC(=O)/C=C/c1ccccc1)C(C)(C)C)C(=O)C(=O)NC1CC1 [Jun8813, (1S,3aR,6aS)-2-((S)-2-cinnamamido-3,3-dimethylbutanoyl)-N-((S)-1-(cyclopropylamino)-1,2-dioxohexan-3-yl)octahydrocyclopenta[c]pyrrole-1-carboxamide] was tested, and the “enzymatic inhibition” value was “reduced enzymatic inhibition and antiviral activity compared to telaprevir”. CCC[C@H](NC(=O)[C@@H]1[C@H]2CCC[C@H]2CN1C(=O)[C@@H](NC(=O)OCc1ccccc1)C(C)(C)C)C(=O)C(=O)NC1CC1 [Jun7426, Benzyl ((S)-1-((1S,3aR,6aS)-1-(((S)-1-(cyclopropylamino)-1,2-dioxohexan-3-yl)carbamoyl)hexahydrocyclopenta[c]pyrrol-2(1H)-yl)-3,3-dimethyl-1-oxobutan-2-yl)carbamate] was tested, and the “enzymatic inhibition” value was “reduced enzymatic inhibition and antiviral activity compared to telaprevir”. CC(C)(C)[C@H](NC(=O)CC12CC3CC(CC(C3)C1)C2)C(=O)N1C[C@@H]2CCC[C@@H]2[C@H]1C(=O)N[C@H](C(=O)C(=O)NC1CC1)C1CCCC1 [Jun11808, (1S,3aR,6aS)-2-((S)-2-(2-((3S,5S,7S)-adamantan-1-yl)acetamido)-3,3-dimethylbutanoyl)-N-((S)-1-cyclopentyl-3-(cyclopropylamino)-2,3-dioxopropyl)octahydrocyclopenta[c]pyrrole-1-carboxamide] was tested, and the “enzymatic inhibition” value was “comparable enzymatic inhibition and antiviral activity as Jun8861”. CC(C)(C)[C@H](NC(=O)CC12CC3CC(CC(C3)C1)C2)C(=O)N1C[C@@H]2CCC[C@@H]2[C@H]1C(=O)N[C@@H](Cc1c[nH]c2ccccc12)C(=O)C(=O)NC1CC1 [Jun11862, (1S,3aR,6aS)-2-((S)-2-(2-((3S,5S,7S)-adamantan-1-yl)acetamido)-3,3-dimethylbutanoyl)-N-((S)-4-(cyclopropylamino)-1-(1H-indol-3-yl)-3,4-dioxobutan-2-yl)octahydrocyclopenta[c]pyrrole-1-carboxamide] was tested, and the “enzymatic inhibition” value was “comparable enzymatic inhibition and antiviral activity as Jun11385”. In the case of CC(C)(C)[C@H](NC(=O)CC12CC3CC(CC(C3)C1)C2)C(=O)N1C[C@@H]2CCC[C@@H]2[C@H]1C(=O)NC1(C(=O)C(=O)NC2CC2)CCC1 [Jun11806, (1S,3aR,6aS)-2-((S)-2-(2-((3S,5S,7S)-adamantan-1-yl)acetamido)-3,3-dimethylbutanoyl)-N-(1-(2-(cyclopropylamino)-2 oxoacetyl)cyclobutyl)octahydrocyclopenta[c]pyrrole-1-carboxamide], the “enzymatic inhibition” value is reported as “less active compared to Jun11762”. CC(C)(C)[C@H](NC(=O)CC12CC3CC(CC(C3)C1)C2)C(=O)N1C[C@@H]2CCC[C@@H]2[C@H]1C(=O)N[C@H](C(=O)C(=O)NC1CC1)c1ccccc1 [Jun11817, (1S,3aR,6aS)-2-((S)-2-(2-((3S,5S,7S)-adamantan-1-yl)acetamido)-3,3-dimethylbutanoyl)-N-((S)-3-(cyclopropylamino)-2,3-dioxo-1-phenylpropyl)octahydrocyclopenta[c]pyrrole-1-carboxamide] was tested, and the “enzymatic inhibition” value was “less active”. For CC(C)(C)[C@H](NC(=O)CC12CC3CC(CC(C3)C1)C2)C(=O)N1C[C@@H]2CCC[C@@H]2[C@H]1C(=O)N[C@@H](Cc1ccc(F)cc1)C(=O)C(=O)NC1CC1 [Jun11763, (1S,3aR,6aS)-2-((S)-2-(2-((3S,5S,7S)-adamantan-1-yl)acetamido)-3,3-dimethylbutanoyl)-N-((S)-4-(cyclopropylamino)-1-(4-fluorophenyl)-3,4-dioxobutan-2-yl)octahydrocyclo-penta[c]pyrrole-1-carboxamide], the “enzymatic inhibition” value was “comparable enzymatic inhibition and antiviral activity as Jun11385”. With CC(C)(C)[C@H](NC(=O)CC12CC3CC(CC(C3)C1)C2)C(=O)N1C[C@@H]2CCC[C@@H]2[C@H]1C(=O)NC1(C(=O)C(=O)NC2CC2)CCCCC1 [Jun11805, (1S,3aR,6aS)-2-((S)-2-(2-((3S,5S,7S)-adamantan-1-yl)acetamido)-3,3-dimethylbutanoyl)-N-(1-(2-(cyclopropylamino)-2-oxoacetyl)cyclohexyl)octahydrocyclopenta[c]pyrrole-1-carboxamide] the “enzymatic inhibition” value was “less active compared to Jun11762”.

What follows are molecules tested on EV-D68 US/MO/14-18947 (assay: CPE assay with EV-D68 US/MO/14-18947 in R.D. cells). Conditions: Enterovirus D, EVD68, RD, read-out: Antiviral EC50.
Format: cell-based, Enterovirus D68
CCC[C@H](NC(=O)[C@@H]1[C@H]2CCC[C@H]2CN1C(=O)[C@@H](NC(=O)CC1CCC(F)(F)CC1)C(C)(C)C)C(=O)C(=O)NC1CC1 [Jun975, (1S,3aR,6aS)-N-((S)-1-(cyclopropylamino)-1,2-dioxohexan-3-yl)-2-((S)-2-(2-(4,4-difluorocyclohexyl)acetamido)-3,3-dimethylbutanoyl)octahydrocyclopenta[c]pyrrole-1-carboxamide] was tested, and the EC50 was 160 to 750 nM.
